The text below walks through data of ChEMBL document CHEMBL1268840, “Design, synthesis and structure-activity relationship of novel quinoxalin-2-carboxamides as 5-HT3 receptor antagonists for the management of depression” (Bioorg Med Chem Lett, 2010).

In data set [1] the target is T1, 5-hydroxytryptamine receptor 3A (Cavia porcellus, UniProt O70212).
T1 sequence (O70212 whole entry): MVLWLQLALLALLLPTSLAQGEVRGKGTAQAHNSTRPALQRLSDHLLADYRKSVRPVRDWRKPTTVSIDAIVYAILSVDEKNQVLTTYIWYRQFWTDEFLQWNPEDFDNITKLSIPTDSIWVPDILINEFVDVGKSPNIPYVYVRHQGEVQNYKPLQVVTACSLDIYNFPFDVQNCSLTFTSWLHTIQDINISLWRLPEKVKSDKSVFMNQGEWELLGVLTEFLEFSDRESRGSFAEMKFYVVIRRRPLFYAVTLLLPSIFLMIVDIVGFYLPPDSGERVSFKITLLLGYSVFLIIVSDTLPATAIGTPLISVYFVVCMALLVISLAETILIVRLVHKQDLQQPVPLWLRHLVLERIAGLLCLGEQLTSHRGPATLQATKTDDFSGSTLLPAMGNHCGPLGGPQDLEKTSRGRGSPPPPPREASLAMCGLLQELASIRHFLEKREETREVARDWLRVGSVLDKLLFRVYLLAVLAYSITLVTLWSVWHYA
Nature of the data set: Antagonist activity at 5HT3 receptor in guinea pig ileum longitudinal muscle myenteric plexus assessed as inhibition of 2-methyl-5-HT-induced contraction. The format is functional, tissue-based. Conditions: read-out: pA2 (converted).

The test system of data set [2] is Mus musculus. Nature of the data set: Antidepressant-like activity in mouse assessed as immobility time at 1 mg/kg, ip by forced swimming test. The format is functional. Conditions: route intraperitoneal.
Data set [3] has as its system Mus musculus. The data set can be described thus: Antidepressant-like activity in mouse assessed as immobility time at 0.5 mg/kg, ip by forced swimming test. The settings on record: route intraperitoneal. The format is functional.
In data set [4] the test system is Mus musculus. The data set can be described thus: Antidepressant-like activity in mouse assessed as immobility time at 2 mg/kg, ip by forced swimming test. The class given is functional. The settings on record: route intraperitoneal.
Data set [5] has as its system Mus musculus. The data set can be described thus: Toxicity in mouse assessed as induction of spontaneous locomotor activity at 1 mg/kg, ip after 10 mins by actophotometry. The class given is organism-based. The arrangement: dose 1 mg/kg, route intraperitoneal. Conditions: in vivo.
The subject of data set [6] is Mus musculus. The data set can be described thus: Toxicity in mouse assessed as induction of spontaneous locomotor activity at 0.5 mg/kg, ip after 10 mins by actophotometry. The settings on record: in vivo. The class given is organism-based. More on the design: dose 0.5 mg/kg, route intraperitoneal.
In data set [7] the test system is Mus musculus. The data set can be described thus: Toxicity in mouse assessed as induction of spontaneous locomotor activity at 2 mg/kg, ip after 10 mins by actophotometry. The class given is organism-based. More on the design: dose 2 mg/kg, route intraperitoneal. Conditions: in vivo.

For the compound `Cc1ccc(NC(=O)c2cnc3ccccc3n2)cc1`, in data set [1], the Kb is 6310 nM. The Time in the data set on Mus musculus [2] was 105 s; in the data set with Mus musculus [3], 140 s; in the data set on Mus musculus [4], 97.23 s. The Activity result in the data set on Mus musculus [5], in the data set with Mus musculus [6] and with Mus musculus [7] was “Non-toxic” in each case.
On to `O=C(NCc1ccccc1)c1cnc2ccccc2n1`, for which the Kb in data set [1] is 2000 nM. In addition, the Time in the data set on Mus musculus [2] was determined as 133 s. Moreover, the Activity result in the data set on Mus musculus [5], with Mus musculus [6] and with Mus musculus [7] was “Non-toxic” throughout.
For `O=C(NNc1ccccc1)c1cnc2ccccc2n1`, in data set [1], the Kb was 1580 nM. Moreover, the Time with Mus musculus [2] is 95.4 s; with Mus musculus [3] it was 126 s; in the data set with Mus musculus [4], 121 s. Besides, the Activity entry with Mus musculus [5], with Mus musculus [6] and in the data set with Mus musculus [7] was “Non-toxic” each time.
As to `O=C(Nc1cccc(Cl)c1)c1cnc2ccccc2n1`, the Kb in data set [1] is 1580 nM. Besides, in the data set with Mus musculus [2], the Time is listed as 151.2 s. The Activity result in the data set on Mus musculus [5], with Mus musculus [6] and in the data set on Mus musculus [7] was “Non-toxic” each time.
Consider `CCCNC(=O)c1cnc2ccccc2n1`, for which the Kb in data set [1] was 200 nM. Besides, the Time was found to be 92.33 s in the data set with Mus musculus [2], 148 s with Mus musculus [3] and 125 s with Mus musculus [4]. Moreover, the Activity entry in the data set with Mus musculus [5], in the data set with Mus musculus [6] and in the data set on Mus musculus [7] was “Non-toxic” throughout.
On to `CCCCNC(=O)c1cnc2ccccc2n1`, for which, in data set [1], the Kb is 50.1 nM. In addition, the Time in the data set with Mus musculus [2] was found to be 97.5 s; in the data set on Mus musculus [3], 121 s; in the data set on Mus musculus [4], 103 s. In addition, the Activity entry in the data set with Mus musculus [5], in the data set on Mus musculus [6] and in the data set on Mus musculus [7] was “Non-toxic” in each case.
As to `O=C(c1cnc2ccccc2n1)N1CCCC1`, in data set [1], the Kb is 398 nM. In the data set on Mus musculus [2], the Time is recorded as 139 s. The Activity result in the data set with Mus musculus [5], in the data set with Mus musculus [6] and in the data set on Mus musculus [7] was “Non-toxic” throughout.
For `O=C(NC1CCCC1)c1cnc2ccccc2n1`, the Kb in data set [1] is 316 nM. The Time in the data set with Mus musculus [2] came out at 94.25 s; with Mus musculus [3], 125 s; with Mus musculus [4] it was 120 s. The Activity result in the data set on Mus musculus [5], in the data set with Mus musculus [6] and in the data set with Mus musculus [7] was “Non-toxic” throughout.
Turning to `O=C(NC1CCCCC1)c1cnc2ccccc2n1`, the Kb in data set [1] was 1000 nM. For the same compound, the Time in the data set with Mus musculus [2] turned out to be 92.85 s; with Mus musculus [3], 119 s; in the data set with Mus musculus [4], 99 s. In addition, the Activity entry in the data set on Mus musculus [5], with Mus musculus [6] and with Mus musculus [7] was “Non-toxic” throughout.
Consider `O=C(Nc1ccccc1)c1cnc2ccccc2n1`, for which the Kb in data set [1] was 158 nM. For the same compound, the Time with Mus musculus [2] came to 141 s. The Activity entry with Mus musculus [5], with Mus musculus [6] and with Mus musculus [7] was “Non-toxic” each time.
For the compound `COc1ccc(NC(=O)c2cnc3ccccc3n2)cc1`, in data set [1], the Kb is 10000 nM. Moreover, in the data set on Mus musculus [2], the Time worked out at 143.5 s. Besides, the Activity entry with Mus musculus [5], in the data set with Mus musculus [6] and in the data set on Mus musculus [7] was “Non-toxic” throughout.
Turning to `CC(=O)c1cccc(NC(=O)c2cnc3ccccc3n2)c1`, the Kb in data set [1] was 794 nM. Besides, the Time in the data set on Mus musculus [2] is reported as 132.4 s. For the same compound, the Activity entry with Mus musculus [5], with Mus musculus [6] and in the data set on Mus musculus [7] was “Non-toxic” in each case.
For the compound `O=C(Nc1ccc([N+](=O)[O-])cc1)c1cnc2ccccc2n1`, the Kb in data set [1] was 10000 nM. The Time with Mus musculus [2] turned out to be 106.32 s; in the data set with Mus musculus [3], 142 s; in the data set with Mus musculus [4], 108 s. Besides, the Activity entry in the data set on Mus musculus [5], with Mus musculus [6] and in the data set on Mus musculus [7] was “Non-toxic” each time.
`Cc1c(Cl)cccc1NC(=O)c1cnc2ccccc2n1`: the Kb in data set [1] was 25.1 nM. For the same compound, the Time was found to be 95.42 s in the data set with Mus musculus [2], 120 s in the data set on Mus musculus [3] and 147 s with Mus musculus [4]. The Activity entry with Mus musculus [5], in the data set with Mus musculus [6] and with Mus musculus [7] was “Non-toxic” each time.
In the case of `O=C(Nc1nc2ccccc2s1)c1cnc2ccccc2n1`, in data set [1], the Kb was 31600 nM. Besides, the Time with Mus musculus [2] came out at 115.1 s. Also, the Activity result in the data set on Mus musculus [5], in the data set on Mus musculus [6] and with Mus musculus [7] was “Non-toxic” each time.
`O=C(Nc1ccc(NC(=O)c2cnc3ccccc3n2)cc1)c1ccccc1`: the Kb in data set [1] is 12600 nM. For the same compound, the Time in the data set with Mus musculus [2] is recorded as 125 s. The Activity result with Mus musculus [5], with Mus musculus [6] and in the data set on Mus musculus [7] was “Non-toxic” in each case.
With `O=C(Nc1ccccc1NC(=O)c1cnc2ccccc2n1)c1ccccc1`, the Kb in data set [1] is 100000 nM. In addition, the Time in the data set on Mus musculus [2] is recorded as 121 s. The Activity result in the data set on Mus musculus [5], with Mus musculus [6] and in the data set with Mus musculus [7] was “Non-toxic” throughout.
Regarding `Cc1nccn1CC1CCc2c(c3ccccc3n2C)C1=O` (stereo not drawn) [ONDANSETRON], in data set [1], the Kb is 126 nM. In addition, the Time with Mus musculus [2] stood at 100.4 s; in the data set on Mus musculus [3] it was 130.2 s; with Mus musculus [4], 95.1 s. Also, the Activity entry in the data set on Mus musculus [5], in the data set on Mus musculus [6] and with Mus musculus [7] was “Non-toxic” throughout.
